These results are taken from ChEMBL document CHEMBL1148261, “Pharmacophore-based search, synthesis, and biological evaluation of anthranilic amides as novel blockers of the Kv1.5 channel” (Bioorg Med Chem Lett, 2004).

In data set [1] the target is T1, Potassium voltage-gated channel subfamily A member 5 (Homo sapiens, UniProt P22460). Nature of the data set: Percent inhibition of human voltage-gated potassium channel subunit Kv1.5 expressed in Xenopus oocytes at 10 uM. The settings on record: Oocyte. The data set is classed as cell-based.
For data set [2], the target named is T1, Potassium voltage-gated channel subfamily A member 5. The data set can be described thus: Inhibitory effect against human voltage-gated potassium channel subunit Kv1.5 expressed in Xenopus oocytes. The data set is classed as cell-based, Oocyte.
Data set [3] in a line: pKa value was determined. The format is physicochemical.
Data set [4] can be described thus: Oral bioavailability of compound in rats. The following applies: rat, in vivo. The data set is classed as ADME, organism-based.

T1 sequence (P22460 whole entry): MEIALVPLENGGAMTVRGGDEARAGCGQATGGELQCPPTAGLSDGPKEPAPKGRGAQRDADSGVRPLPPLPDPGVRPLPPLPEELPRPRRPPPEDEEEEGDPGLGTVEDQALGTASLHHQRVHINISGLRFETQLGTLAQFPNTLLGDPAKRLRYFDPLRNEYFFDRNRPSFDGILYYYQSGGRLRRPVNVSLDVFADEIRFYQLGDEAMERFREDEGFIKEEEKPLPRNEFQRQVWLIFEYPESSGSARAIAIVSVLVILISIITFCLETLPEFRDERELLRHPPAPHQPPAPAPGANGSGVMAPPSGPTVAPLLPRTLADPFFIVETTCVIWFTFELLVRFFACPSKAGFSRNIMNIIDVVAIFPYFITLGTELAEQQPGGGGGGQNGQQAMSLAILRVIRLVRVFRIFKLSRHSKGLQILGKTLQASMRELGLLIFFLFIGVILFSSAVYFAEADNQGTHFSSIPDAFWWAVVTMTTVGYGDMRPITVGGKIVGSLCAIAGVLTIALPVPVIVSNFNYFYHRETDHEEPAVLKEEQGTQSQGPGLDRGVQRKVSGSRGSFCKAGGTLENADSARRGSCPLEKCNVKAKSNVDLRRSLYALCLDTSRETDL

Compound `CC[C@H](NC(=O)c1cc(OCN(C)C)ccc1NS(=O)(=O)c1ccc(C)cc1)c1ccccc1` gave an inhibition in data set [1] of 15%.
With `O=C(NCc1ccccc1)c1cc(Cl)ccc1NS(=O)(=O)c1ccc(Cl)cc1`, in data set [2], it took 5.6 µM to reach half-maximal inhibition (IC50).
For the compound `CC[C@H](NC(=O)c1cc(OCC2CC2)ccc1NS(=O)(=O)c1ccc(C)cc1)c1ccccc1`, the inhibition in data set [1] was 41%.
`CC[C@H](NC(=O)c1ccccc1NS(=O)(=O)c1ccc(C)cc1)c1ccccc1`: the pKa in data set [3] amounted to 7.2. Besides, the IC50 in data set [2] worked out at 0.7 µM.
In data set [2], `CC[C@H](NC(=O)c1ccccc1NS(=O)(=O)c1cccc2cccnc12)c1ccccc1` had an IC50 of 0.6 µM.
In data set [1], `CC[C@H](NC(=O)c1ccccc1NS(=O)(=O)c1cccnc1)c1ccccc1` gave an inhibition of 36%.
For the compound `CC[C@H](NC(=O)c1ccccc1NS(=O)(=O)c1ccc(C(F)(F)F)cc1)c1ccccc1`, the pKa in data set [3] worked out at 6.2. The half-inhibitory concentration (IC50) in data set [2] was found to be 4 µM.
Take `CC[C@H](NC(=O)c1cc(C(C)=O)ccc1NS(=O)(=O)c1ccc(C)cc1)c1ccccc1`: the half-maximal inhibitory concentration (IC50) in data set [2] amounted to 3.8 µM.
In data set [3], `CC[C@H](NC(=O)c1ccccc1NS(=O)(=O)c1ccccc1)c1ccccc1` registered a pKa of 6.9. The IC50 in data set [2] worked out at 1.3 µM.
`Cc1ccc(S(=O)(=O)Nc2ccccc2C(=O)N(Cc2ccccc2)Cc2cccnc2)cc1` gave a bioavailability in data set [4] of 43%.
In data set [1], `CC[C@H](NC(=O)c1cc(OCCOC)ccc1NS(=O)(=O)c1ccc(C)cc1)c1ccccc1` showed an inhibition of 46%.
In data set [2], `CC[C@H](NC(=O)c1ccccc1NS(=O)(=O)CC)c1ccccc1` came in with a half-inhibitory concentration (IC50) of 10 µM.
The compound `CC[C@H](NC(=O)c1cc(OC)ccc1NS(=O)(=O)c1ccc(C)cc1)c1ccccc1` showed a pKa in data set [3] of 7.5.
In data set [2], `Cc1ccc(S(=O)(=O)Nc2ccccc2C(=O)N(Cc2cccnc2)Cc2cccnc2)cc1` returned an IC50 of 2.2 µM.
In data set [3], `CC[C@H](NC(=O)c1cc(F)ccc1NS(=O)(=O)c1ccc(Cl)cc1)c1ccccc1` came in with a pKa of 6.5. Also, the IC50 in data set [2] was 3.8 µM.
Consider `CC[C@H](NC(=O)c1ccccc1NS(=O)(=O)c1cccc2cnccc12)c1ccccc1`, for which the half-inhibitory concentration (IC50) in data set [2] was determined as 9 µM.
In data set [2], `Cc1ccc(S(=O)(=O)Nc2ccccc2C(=O)NCCc2ccccc2)cc1` had an IC50 of 6.7 µM.
`Cc1ccc(S(=O)(=O)Nc2ccccc2C(=O)NC(c2ccccc2)C2CC2)cc1` (configuration not stated): the IC50 in data set [2] was 1.6 µM.

Usually inhibition stands for the relative decrease from the control value, in per cent. For orientation: IC50 means the point on the concentration scale where inhibition reaches its midpoint. In general, pKa refers to the negative logarithm of the acid dissociation constant. Read a low pKa as a stronger acid or weaker base. For orientation: bioavailability means the share of a dose that reaches the circulation, judged against a reference dose that is usually intravenous. Read a high bioavailability as good availability.
